Reference: US7482362B2, “Substituted-4-quinolones” (priority 2000, dated 2009)

What was measured:
TNF-α = test: In vitro LPS stimulation of human PBMC for the release of TNF-α, sandwich ELISA; type: cell-based; details: FIG. 4C
Method: Human PBMC, at 100,000 cell per well, were stimulated with 1×10^−5 μg/ml LPS E. coli strain 055:B5. Following culture for 24 hours the cell culture supernatants were collected and tested for TNF-α levels by ‘sandwich’ ELISA similarly described above for the IL-2 detection assay.

IL-2 = IL-2 release from ConA-stimulated human PBMC, sandwich ELISA; type: cell-based; details: ConA 1 μg/ml, culture supernatant, FIG. 4B
Method: Human peripheral blood mononuclear cells (PBMC) were isolated from heparinised whole blood by buoyant density centrifugation over Histopague 1077 (Sigma, Poole, UK) 600 g for 20 minutes. PBMC harvested from the ‘buffy’ layers were washed and then aliquoted into 96-well plates at 100,000 per well. PBMC were exposed to bacterial quorum sensing molecules (PQS or OdDHL) at concentrations ranging from 0.78125 to 100 μM and then stimulated with 1 μg/ml of Concanavalin A (ConA). After an overnight culture 50 μl of the culture supernatant was removed for the detection of IL-2 released by ‘sandwich’ ELISA. […] Following an 18-hour pulse the human PBMC were harvested onto fibreglass filters which were then counted in the presence of MicroScint-O with the Packard TopCount scintillation counter.
Human leucocytes when stimulated with ConA released the cytokine IL-2. The levels of cytokine produced in the culture supernatants after 24 h were determined in a ‘sandwich’ ELISA. […] Following four washes, the bound biotinylated antibody was detected with 50 μl of a 1:1,000 dilution of Streptavidin-peroxidase (BD Pharmingen, UK). […] The enzyme reaction was stopped with 50 μl of 2.5 M H2SO4 after a development of 10 minutes at room temperature and the development was read at 450 nm with a spectrophotometric 96-well plate reader.

[1] = system: Human peripheral blood mononuclear cells (PBMC); test: In vitro proliferation assay of ConA-stimulated human PBMC (3H-thymidine); type: cell-based; details: ConA 1 μg/ml, 0.78125 to 100 μM; FIG. 4A
Method: Human peripheral blood mononuclear cells (PBMC) were isolated from heparinised whole blood by buoyant density centrifugation over Histopague 1077 (Sigma, Poole, UK) 600 g for 20 minutes. PBMC harvested from the ‘buffy’ layers were washed and then aliquoted into 96-well plates at 100,000 per well. PBMC were exposed to bacterial quorum sensing molecules (PQS or OdDHL) at concentrations ranging from 0.78125 to 100 μM and then stimulated with 1 μg/ml of Concanavalin A (ConA). After an overnight culture 50 μl of the culture supernatant was removed for the detection of IL-2 released by ‘sandwich’ ELISA. The cells were returned to culture for another 24 hours before 0.25 μCi per well of ^3H-thymidine was added. Following an 18-hour pulse the human PBMC were harvested onto fibreglass filters which were then counted in the presence of MicroScint-O with the Packard TopCount scintillation counter.

murine splenocytes = test: ConA mitogen-stimulated proliferation of murine splenocytes ([3H]-thymidine incorporation); type: cell-based, mouse (BALB/c); details: ConA 1 μg/ml, 100,000 spleen cells, compound about 10 to 0.2 μM; FIG. 1
Method: 1. ConA Mitogen-Stimulated Proliferation of Murine Splenocytes
The concanavalin A (ConA) cell proliferation assay was used to assess the effect of the title compound on T-cell activation and proliferation. Proliferation was assessed by the incorporation of [^3H]-thymidine into DNA. Eight-week-old female BALB/c mice were obtained from Harlan (Bicester, Oxon, UK) and given food and water ad libitum. Splenocyte suspensions were prepared by removing the spleens and placing them into RPMI 1640 medium. The spleens were forced through 70 μm pore size wire gauzes using the plunger from a 5 ml syringe to produce a single cell suspension. The cells were pelleted by centrifugation, and erythrocytes were lysed with 0.017M Tris, 0.144M ammonium chloride buffer, pH 7.2. Leucocytes were washed twice with RPMI 1640 medium with 2% (vol/vol) foetal calf serum (FCS) and resuspended in complete cell culture medium (CTCM) consisting of RPMI 1640 medium with 5% FCS, 2 mM L-glutamine, and 5×10−5 M 2-mercaptoethanol. The title compound was tested at doubling down dilutions ranging from about 10 to 0.2 μM in a final volume of 200 μl of CTCM, containing ConA (Sigma, Poole, UK) at 1 μg/ml and 100,000 spleen cells. […] After the addition of 25 μl of MicroScint-O (Packard) to each well the filters were counted with the Packard TopCount scintillation counter. […]

Mono Mac 6 cells = test: Mono Mac 6 cellular viability by MTS conversion to formazan; type: cell-based, human; details: Mono Mac 6, 100,000 cells per well, overnight exposure, 3.90625 to 500 μM; FIG. 2, 3
Method: The human monocytic cell line, Mono Mac 6, was treated with concentrations of bacterial quorum sensing molecules 2-heptyl-3-hydroxy-4(1H)quinolone (PQS), N-(3-oxododecanoyl)-L-homoserine lactone (OdDHL) and N-(3-oxohexanoyl)-L-homoserine lactone. Cells at 100,000 per well were exposed to quorum sensing molecules ranging from 3.90625 to 500 μM after which the cells were stimulated with 10 ng/ml E. coli LPS and 5 ng/ml phorbol-myristrate acetate to induce the overnight release of TNF-αinto the culture media. A tetrazolium compound (3-(4,5-dimethylthazol-2-yl)-5-(3-carboxymethoxyphenyl)-2-(4-sulfophenyl)-2H-tetrazolium, inner salt MTS was added to the cells to determine cellular viability after treatment with the quorum sensing molecules. MTS is bioreduced by cells into a formazan product that is soluble in tissue culture medium. The production of formazan was determined by measuring the absorbance of the compound at 450 nm. The results are shown in FIG. 2. A titration of cell numbers was included to correlate to the number of viability cells in the treated wells as set out in the table below.

| Compound | TNF-α production (TNF-α; LPS E. coli 055:B5, 24 hours) | IL-2 secretion (IL-2) | human PBMC cell proliferation [1] | splenocyte proliferation (counts per minute, [3H]-thymidine incorporation) (murine splenocytes) | TNF-α production at high dose (TNF-α; LPS-stimulated, high dose) | TNF-α production at low dose (TNF-α; LPS-stimulated, low dose) | cell viability, as adjudged by MTS conversion (Mono Mac 6 cells) |
| --- | --- | --- | --- | --- | --- | --- | --- |
| CCCCCCCCCC(=O)CC(=O)N[C@H]1CCOC1=O [OdDHL, N-(3-oxododecanoyl)-L-homoserine lactone] | inhibits | inhibits | inhibits |  |  |  |  |
| CCCCCCCc1[nH]c2ccccc2c(=O)c1O [PQS, 2-heptyl-3-hydroxy-4(1H)quinolone] |  |  |  | inhibits | may enhance | no effect | no effect |
